Measurements from PMC10099813, “Stafiba: A STAT5‐Selective Small‐Molecule Inhibitor” (Chembiochem, 2022).

Columns and labels:
[1] = molecular target: T1, STAT5b (Homo sapiens, UniProt P51692); experiment: Competitive fluorescence polarization (FP) binding assay, STAT5b SH2 domain; details: for Ki / IC50: FP assay, 2 % DMSO (10 % DMSO for 10); for Ki: Ki calculated from IC50 (n=3) via published equation; for IC50: n=3; for selectivity for STAT5b over STAT1, STAT3, and STAT6: FP assays
T1 sequence (P51692 1-787): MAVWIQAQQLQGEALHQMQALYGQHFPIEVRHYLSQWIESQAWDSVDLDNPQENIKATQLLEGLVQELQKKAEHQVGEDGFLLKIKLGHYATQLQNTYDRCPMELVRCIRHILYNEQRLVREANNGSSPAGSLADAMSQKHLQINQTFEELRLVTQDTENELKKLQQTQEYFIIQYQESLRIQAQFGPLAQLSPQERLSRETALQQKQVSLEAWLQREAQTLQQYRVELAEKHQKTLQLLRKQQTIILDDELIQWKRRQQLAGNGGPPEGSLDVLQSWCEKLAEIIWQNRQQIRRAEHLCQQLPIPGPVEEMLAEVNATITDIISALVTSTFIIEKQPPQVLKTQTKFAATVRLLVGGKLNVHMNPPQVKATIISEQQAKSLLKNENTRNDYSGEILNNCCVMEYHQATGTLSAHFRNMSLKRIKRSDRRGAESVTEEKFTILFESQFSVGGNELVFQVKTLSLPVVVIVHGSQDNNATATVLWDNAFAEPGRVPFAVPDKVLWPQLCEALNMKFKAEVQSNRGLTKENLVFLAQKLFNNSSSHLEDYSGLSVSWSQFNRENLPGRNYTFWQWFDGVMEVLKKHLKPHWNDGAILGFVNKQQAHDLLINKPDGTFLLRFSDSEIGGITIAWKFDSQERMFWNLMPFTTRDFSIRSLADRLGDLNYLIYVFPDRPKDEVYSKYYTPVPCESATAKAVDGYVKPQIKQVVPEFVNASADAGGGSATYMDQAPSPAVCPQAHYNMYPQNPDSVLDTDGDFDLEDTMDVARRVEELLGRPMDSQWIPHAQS
Experimental: Fluorescence polarization assays: Competitive binding assays based on fluorescence polarization were carried out essentially as previously described.[[4a]] Unless stated otherwise, final concentrations of the buffer components were: 10 mM Tris (pH 8.0), 50 mM NaCl, 1 mM EDTA, 1 mM DTT, 0.1 % (v/v) Nonidet P‐40 substitute, and 2 % DMSO. Proteins were used at concentrations which reflect the Kd values of the interactions between the fluoropeptide and the protein preparations. Protein concentrations used for activity analysis of compound 5 were 91 nM for STAT1, 107 nM for STAT3, 28 nM for STAT4, 122 nM for STAT5a, 56 nM for STAT5b and 101 nM for STAT6. Protein concentrations used for activity analysis of AC‐4‐130 were 103 nM for STAT5a and 62 nM for STAT5b. […] Final concentration of all fluorescent‐labelled peptides was 10 nM. The following peptides were used in assays: 5‐carboxyfluorescein‐GpYDKPHVL for STAT1; 5‐carboxyfluorescein‐GpYLPQTV‐NH2 for STAT3; 5‐carboxyfluorescein‐GpYLPQNID for STAT4; 5‐carboxyfluorescein‐GpYLVLDKW for STAT5a/5b, and 5‐carboxyfluorescein‐GpYVPWQDLI for STAT6. Protein and test compounds were incubated for 1 h prior to addition of the fluorescein‐labeled peptide. Fluorescence polarization was measured after another 60 min using an Infinite F500 plate reader (Tecan). IC50 values were converted to Ki‐values using the published equation.[13]

[2] = Solubility as observed during synthesis / stock preparation; format: physicochemical; details: DMSO stock solution

activity compared with AC-4-130 in FP assay against the SH2 domain of STAT5b ([1]; Figure 5C)	solubility in the DMSO stock solution [2]	SMILES	Ki [1]	IC50 [1]	selectivity for STAT5b over STAT1, STAT3, and STAT6 [1]
		O=C(CNc1ccc(C(=O)Nc2ccc(Oc3ccccc3)cc2)cc1)NCc1cc(OP(=O)(O)O)cc(OP(=O)(O)O)c1 [compound 5]	1.5 ± 0.1 µM	3.1 ± 0.3 µM	more than tenfold
substantially more active than AC‐4‐130	limited solubility	O=C(CNc1ccc(C(=O)Nc2ccc(Oc3ccccc3)cc2)cc1)NCc1cc(C(F)(F)P(=O)(O)O)c(F)c(C(F)(F)P(=O)(O)O)c1 [compound 10]	1.8 ± 0.1 µM	3.7 ± 0.2 µM	10–20 fold
